Each structure is given as a SMILES string.

The target of this experiment is T1, human RIPK1 (1-375) (Homo sapiens, UniProt Q13546).
T1 construct: human RIPK1 (1-375) gene; GST; made in house; host or cells: Sf-9 insect cells
T1 sequence (Q13546 1-375): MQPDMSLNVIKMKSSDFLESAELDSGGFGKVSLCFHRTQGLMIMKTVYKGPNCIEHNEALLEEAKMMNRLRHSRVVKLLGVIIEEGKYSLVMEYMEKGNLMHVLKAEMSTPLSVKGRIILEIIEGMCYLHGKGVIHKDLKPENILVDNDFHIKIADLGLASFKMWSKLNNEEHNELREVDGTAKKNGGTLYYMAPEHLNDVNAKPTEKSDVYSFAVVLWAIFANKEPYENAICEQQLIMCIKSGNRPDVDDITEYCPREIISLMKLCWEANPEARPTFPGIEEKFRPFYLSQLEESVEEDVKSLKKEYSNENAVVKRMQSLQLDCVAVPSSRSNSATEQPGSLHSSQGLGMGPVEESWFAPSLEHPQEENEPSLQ
As to the kind of experiment: Human RIPK1 enzyme inhibitory effect (ADP-Glo Kinase Assay). As to conditions: well without enzyme = 100% inhibition; for inhibition at 10 µM: read-out: human RIPK1 enzyme inhibitory effect at 10 μM (% inhibition), 10 μM test compound. Type of experiment: biochemical. The gist of the method: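 Human RIPK1 (1-375), GST-purified from Sf-9 cells, preincubated 20 min at room temperature with compound in 25 mM HEPES pH 7.5, 10 mM MgCl2, 0.01% Tween-20, 2 mM DTT. Reaction started with 0.6 mM ATP solution (stock), run 120 min at room temperature. ADP measured by ADP-Glo luminescence.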
(ADP-Glo turns the ADP formed in a reaction into a luminescent signal.)

For `CN1C(=O)C(N2CCc3c(nn(Cc4ccccc4)c3Cl)C2=O)CCc2cnccc21` (centres unmarked) [Example 100, 3-(2-benzyl-3-chloro-7-oxo-2,4,5,7-tetrahydro-6H-pyrazolo[3,4-c]pyridin-6-yl)-1-methyl-1,3,4,5-tetrahydro-2H-pyrido[4,3-b]azepin-2-one], where the note is “10 μM test compound, 10 µM”, the “human RIPK1 enzyme inhibitory effect at 10 μM (% inhibition)” value came out at 91%.

As for `CN1C(=O)[C@@H](N2CCc3c(nn(Cc4ccccc4)c3Cl)C2=O)COc2cc(-c3nccn3C)ccc21` [Example 60, (3S)-3-(2-benzyl-3-chloro-7-oxo-2,4,5,7-tetrahydro-6H-pyrazolo[3,4-c]pyridin-6-yl)-5-methyl-8-(1-methyl-1H-imidazol-2-yl)-2,3-dihydro-1,5-benzoxazepin-4(5H)-one], the inhibition (usually the change of the read-out against control, counted positive when it falls) at 10 µM was determined as 100%.

Turning to `CN1C(=O)[C@@H](N2CCc3cn(Cc4ccc(F)cc4)nc3C2=O)COc2ccccc21` [Example 157, (3S)-3-(2-(4-fluorobenzyl)-7-oxo-2,4,5,7-tetrahydro-6H-pyrazolo[3,4-c]pyridin-6-yl)-5-methyl-2,3-dihydro-1,5-benzoxazepin-4(5H)-one], the inhibition at 10 µM is 95%.

For `CN1C(=O)[C@@H](N2CCc3nn(Cc4ccccc4)cc3C2=O)COc2ccccc21` [Example 70, (3S)-3-(2-benzyl-4-oxo-2,4,6,7-tetrahydro-5H-pyrazolo[4,3-c]pyridin-5-yl)-5-methyl-2,3-dihydro-1,5-benzoxazepin-4(5H)-one], the inhibition at 10 µM amounted to 92%.

For `O=C1Nc2ccc(Br)cc2OC[C@@H]1N1CCc2c(nn(Cc3ccccc3)c2Cl)C1=O` [Example 82, (3S)-3-(2-benzyl-3-chloro-7-oxo-2,4,5,7-tetrahydro-6H-pyrazolo[3,4-c]pyridin-6-yl)-8-bromo-2,3-dihydro-1,5-benzoxazepin-4(5H)-one], the inhibition at 10 µM worked out at 99%.

As to `CN1C(=O)C(N2CCc3c(nn(Cc4ccccc4F)c3Cl)C2=O)CCc2ccncc21` (centres unmarked) [Example 103, 3-(3-chloro-2-(2-fluorobenzyl)-7-oxo-2,4,5,7-tetrahydro-6H-pyrazolo[3,4-c]pyridin-6-yl)-1-methyl-1,3,4,5-tetrahydro-2H-pyrido[3,4-b]azepin-2-one], the inhibition at 10 µM turned out to be 99%.

For `CN1C(=O)[C@@H](N2CCc3cn(Cc4c(F)cccc4F)nc3C2=O)COc2ccccc21` [Example 24, (3S)-3-(2-(2,6-difluorobenzyl)-7-oxo-2,4,5,7-tetrahydro-6H-pyrazolo[3,4-]pyridin-6-yl)-5-methyl-2,3-dihydro-1,5-benzoxazepin-4(5H)-one], the inhibition at 10 µM is 101%.

As for `CN1C(=O)[C@@H](N2CCc3c(nn(Cc4ccccc4)c3Cl)C2=O)COc2cc(C(=O)NC3COC3)ccc21` [Example 118, (3S)-3-(2-benzyl-3-chloro-7-oxo-2,4,5,7-tetrahydro-6H-pyrazolo[3,4-c]pyridin-6-yl)-5-methyl-N-(oxetan-3-yl)-4-oxo-2,3,4,5-tetrahydro-1,5-benzoxazepine-8-carboxamide], the inhibition at 10 µM was determined as 98%.

`CNC(=O)c1ccc2c(c1)N(C)C(=O)[C@@H](N1CCc3c(nn(Cc4ccccc4)c3Cl)C1=O)CO2` [Example 89, (3S)-3-(2-benzyl-3-chloro-7-oxo-2,4,5,7-tetrahydro-6H-pyrazolo[3,4-c]pyridin-6-yl)-N,5-dimethyl-4-oxo-2,3,4,5-tetrahydro-1,5-benzoxazepine-7-carboxamide]: the inhibition at 10 µM came out at 101%.

Take `CN1C(=O)[C@@H](N2CCc3c(nn(Cc4cnccn4)c3Cl)C2=O)COc2ccccc21` [Example 80, (3S)-3-(3-chloro-7-oxo-2-(pyrazin-2-ylmethyl)-2,4,5,7-tetrahydro-6H-pyrazolo[3,4-c]pyridin-6-yl)-5-methyl-2,3-dihydro-1,5-benzoxazepin-4(5H)-one]: the inhibition at 10 µM is 101%.

With `CN1C(=O)[C@@H](N2CCc3cn(Cc4cccc(C#N)c4)nc3C2=O)COc2ccccc21` [Example 29, 3-((6-((3S)-5-methyl-4-oxo-2,3,4,5-tetrahydro-1,5-benzoxazepin-3-yl)-7-oxo-4,5,6,7-tetrahydro-2H-pyrazolo[3,4-c]pyridin-2-yl)methyl)benzonitrile], the inhibition at 10 µM amounted to 99%.

As to `CN1C(=O)[C@@H](N2CCc3cn(CC4CCS(=O)(=O)C4)nc3C2=O)COc2ccccc21` (stereo partly drawn) [Example 163, (3S)-3-(2-((1,1-dioxidotetrahydrothiophen-3-yl)methyl)-7-oxo-2,4,5,7-tetrahydro-6H-pyrazolo[3,4-c]pyridin-6-yl)-5-methyl-2,3-dihydro-1,5-benzoxazepin-4(5H)-one], the inhibition at 10 µM was determined as 53%.

Consider `CN1C(=O)[C@@H](N2CCc3c(nn(Cc4ccccc4)c3Br)C2=O)COc2ccccc21` [Example 10, (3S)-3-(2-benzyl-3-bromo-7-oxo-2,4,5,7-tetrahydro-6H-pyrazolo[3,4-c]pyridin-6-yl)-5-methyl-2,3-dihydro-1,5-benzoxazepin-4(5H)-one], for which the inhibition at 10 µM was 98%.

Take `CN(C)C(=O)c1ccc2c(c1)OC[C@H](N1CCc3c(nn(Cc4ccccc4)c3Cl)C1=O)C(=O)N2C` [Example 87, (3S)-3-(2-benzyl-3-chloro-7-oxo-2,4,5,7-tetrahydro-6H-pyrazolo[3,4-c]pyridin-6-yl)-N,N,5-trimethyl-4-oxo-2,3,4,5-tetrahydro-1,5-benzoxazepine-8-carboxamide]: the inhibition at 10 µM was 100%.

Consider `CN1C(=O)[C@@H](N2CCc3cn(Cc4ccccc4)nc3C2=O)COc2cc(C#N)ccc21` [Example 13, (3S)-3-(2-benzyl-7-oxo-2,4,5,7-tetrahydro-6H-pyrazolo[3,4-c]pyridin-6-yl)-5-methyl-4-oxo-2,3,4,5-tetrahydro-1,5-benzoxazepine-8-carbonitrile], for which the inhibition at 10 µM was 99%.

For `CN1C(=O)[C@@H](N2CCc3cn(Cc4cnccn4)nc3C2=O)COc2ccccc21` [Example 42, (3S)-5-methyl-3-(7-oxo-2-(pyrazin-2-ylmethyl)-2,4,5,7-tetrahydro-6H-pyrazolo[3,4-c]pyridin-6-yl)-2,3-dihydro-1,5-benzoxazepin-4(5H)-one], the inhibition at 10 µM is 99%.

Turning to `CN1C(=O)[C@@H](N2CCc3cn(Cc4c(F)cccc4F)nc3C2=O)COc2cc(Br)ccc21` [Example 110, (3S)-8-bromo-3-(2-(2,6-difluorobenzyl)-7-oxo-2,4,5,7-tetrahydro-6H-pyrazolo[3,4-c]pyridin-6-yl)-5-methyl-2,3-dihydro-1,5-benzoxazepin-4(5H)-one], the inhibition at 10 µM was 100%.

Consider `CN1C(=O)[C@@H](N2CCc3cn(Cc4ccc(C#N)cc4)nc3C2=O)COc2ccccc21` [Example 30, 4-((6-((3S)-5-methyl-4-oxo-2,3,4,5-tetrahydro-1,5-benzoxazepin-3-yl)-7-oxo-4,5,6,7-tetrahydro-2H-pyrazolo[3,4-c]pyridin-2-yl)methyl)benzonitrile], for which the inhibition at 10 µM came to 97%.

Consider `CN1C(=O)C(N2CCc3c(nn(Cc4ccccc4)c3Cl)C2=O)CCc2nn(C)cc21` (centres unmarked) [Example 92, 6-(2-benzyl-3-chloro-7-oxo-2,4,5,7-tetrahydro-6H-pyrazolo[3,4-c]pyridin-6-yl)-2,4-dimethyl-2,6,7,8-tetrahydropyrazolo[4,3-b]azepin-5(4H)-one], for which the inhibition at 10 µM amounted to 98%.

For `CN1C(=O)[C@@H](N2CCc3cn(Cc4c(Cl)cccc4C#N)nc3C2=O)COc2ccccc21` [Example 165, 3-chloro-2-((6-((3S)-5-methyl-4-oxo-2,3,4,5-tetrahydro-1,5-benzoxazepin-3-yl)-7-oxo-4,5,6,7-tetrahydro-2H-pyrazolo[3,4-c]pyridin-2-yl)methyl)benzonitrile], the inhibition at 10 µM came to 99%.

(Values after patent US10787462B2, “Heterocyclic compound” (TAKEDA PHARMACEUTICAL COMPANY LIMITED, priority 2015, dated 2020).)
